In patent US12544372B2, “Methods of treating rheumatoid arthritis, chronic spontaneous urticaria, and systemic lupus erythematosis using an inhibitor of Bruton's tyrosine kinase” (Genentech, Inc., priority 2019, dated 2026):
Marks after values point to notes of the source that are not given here.

How the values were obtained:
Total IgM = assay: RA study biomarker: total IgM; format: in vivo, human
Procedure: (§1) […] The biomarkers evaluated in this assessment were chemokine [C-C motif] ligand 4 (CCL4), IL-6, and TNF-like cytokine 1A (TL1A). Total IgM, IgG, rheumatoid factor IgM autoantibody (RF), CCL4, TL1A, IL-6, and anti-CCP autoantibody (ACPA IgG) levels were analyzed with immunoassays. CD19^+ B cells and CD3^+ T cells were measured by flow cytometry. The proportion of patients achieving an ACR50 response at week 12 and the change in DAS28 score by week 12 were assessed relative to seropositivity (RF and/or ACPA positive at baseline) or baseline levels of RF in both cohorts. To select which biomarkers to evaluate in this trial, BTK-dependent myeloid biomarkers were identified using peripheral blood CD14^+ monocytes stimulated with immune-complexes in the presence or absence of a BTK inhibitor. In brief, the expression levels of genes in human monocytes were assayed under conditions of no stimulation; with human serum albumin immune complex stimulation; with stimulation and a low concentration of a BTK inhibitor with similar characteristics to fenebrutinib; or with stimulation and a high concentration of the BTK inhibitor. […] Genes annotated with cytokine activity were selected. The color bar represents normalized gene expression.

Total IgG = assay: RA study biomarker: total IgG; format: in vivo, human
Procedure: as §1

[1] = cohort 1, 200 mg twice daily, by week 12
[2] = cohort 2, 200 mg twice daily, by week 12

With `C[C@H]1CN(C2COC2)CCN1c1ccc(Nc2cc(-c3ccnc(N4CCn5c(cc6c5CC(C)(C)C6)C4=O)c3CO)cn(C)c2=O)nc1` [fenebrutinib, (S)-2-(3′-(hydroxymethyl)-1-methyl-5-((5-(2-methyl-4-(oxetan-3-yl)piperazin-1-yl)pyridin-2-yl)amino)-6-oxo-1,6-dihydro-[3,4′-bipyridin]-2′-yl)-7,7-dimethyl-2,3,4,6,7,8-hexahydro-1H-cyclopenta[4,5]pyrrolo[1,2-a]pyrazin-1-one] the “Total IgM Reduction as % of Baseline” value (Total IgM; Cohort 1, 50 mg QD, Week 4) was 94%, the “Total IgM Reduction as % of Baseline” value (Total IgM; Cohort 1, 50 mg QD, Week 8) was 91%* and the “Total IgM Reduction as % of Baseline” value (Total IgM; Cohort 1, 50 mg QD, Week 12) was 88%*. The “Total IgM Reduction as % of Baseline” value (Total IgM; Cohort 1, 150 mg QD, Week 4) was 91%*, the “Total IgM Reduction as % of Baseline” value (Total IgM; Cohort 1, 150 mg QD, Week 8) was 88%* and the “Total IgM Reduction as % of Baseline” value (Total IgM; Cohort 1, 150 mg QD, Week 12) was 86%*. The “Total IgM Reduction as % of Baseline” value (Total IgM; Cohort 1, 200 mg BID, Week 4) was 92%*, the “Total IgM Reduction as % of Baseline” value (Total IgM; Cohort 1, 200 mg BID, Week 8) was 86%* and the “Total IgM Reduction as % of Baseline” value (Total IgM; Cohort 1, 200 mg BID, Week 12) was 84%*. For the same compound, the “Total IgM absolute reduction relative to placebo” value (Total IgM; [1]) was -22 mg/dL, the “Total IgM reduction relative to placebo” value (Total IgM; [2]) was -17 mg/dL and the “Total IgG Reduction as % of Baseline” value (Total IgG; Cohort 1, 150 mg QD, Week 4) was 97%*. The “Total IgG Reduction as % of Baseline” value (Total IgG; Cohort 1, 150 mg QD, Week 8) was 94%*, the “Total IgG Reduction as % of Baseline” value (Total IgG; Cohort 1, 150 mg QD, Week 12) was 95%* and the “Total IgG Reduction as % of Baseline” value (Total IgG; Cohort 1, 200 mg BID, Week 4) was 95%*. The “Total IgG Reduction as % of Baseline” value (Total IgG; Cohort 1, 200 mg BID, Week 8) was 92%*, the “Total IgG Reduction as % of Baseline” value (Total IgG; Cohort 1, 200 mg BID, Week 12) was 93%* and the “IgG absolute reduction relative to placebo” value (Total IgG; [1]) was -115 mg/dL. For the same compound, the “IgG reduction relative to placebo” value (Total IgG; [2]) was -101 mg/dL.
